Measurements from patent US11472846B2, “Compositions and methods for treating diseases by inhibiting exosome release” (priority 2016, dated 2022).

What was measured:
Format in all cases: cell-based, human
[1] = test system: MCF-7 cells; assay: TUNEL apoptosis assay, MCF-7; settings: 48 hours, MKT-077 500 nM/mL, DMA 300 μM/mL, Omeprazole 200 μM/mL, paclitaxel 1.6 uM/mL, cisplatin 2 mg/mL
Method: (§1) 7-8. Apoptosis assay by flow cytometry. For assessment of apoptosis, MCF-7 and MDA-MB-231 breast cancer cells and were seeded into 6-well plates at 4×10^5 cells per well and treated for 48 hours with 925 nM/mL of MKT-077 on MDA-MB-231 cells, 500 nM/mL of MKT-077 on MCF-7 cells, 337.5 nM/mL of MKT-077 on K562 cells, 300 μM/mL of DMA, 200 μM/mL of Omeprazole, 1.6 uM/mL of paclitaxel, 2 mg/mL of cisplatin, or combined treatment with either paclitaxel or cisplatin in combination with each of the three mortalin inhibitors. Apoptosis was determined using the TUNEL detection kit (Nexcelom, MA) and GUAVA easyCyte HT (EMD Millipore Corporation, Temecula, Calif.) system for fluorometric detection. (FIG. 13).

[2] = test system: K562 cells; assay: TUNEL apoptosis assay, K562; settings: 48 hours, MKT-077 337.5 nM/mL, DMA 300 μM/mL, Omeprazole 200 μM/mL, paclitaxel 1.6 uM/mL, cisplatin 2 mg/mL
Method: as §1

[3] = test system: K562 exosomes; assay: Western blot of exosomal proteins (Alix, vimentin, mortalin), K562; settings: K562 cells, 48 hr treatment
Method: (§2) 7-7. Protein analysis by Western blotting. Exosomes were isolated from cell culture supernatants as described above. Protein concentrations were determined by measuring absorbance at 280 nm (Nanodrop 2000). Cultured cells were treated with PEG-SMR-Clu, SMR-CPP peptides, MKT-077, Omeprazole or DMA at 37° C. for 48 hr. To evaluate mortalin, vimentin and exosome expression, Western blot analysis was performed using anti-mortalin (Grp-75), anti-Vimentin and anti-Alix antibodies, respectively (FIG. 12).
(§3) Exosomes and cell lysates were prepared by incubating 5-10 min at 95° C. in sample buffer. The lysates were subjected to SDS-PAGE under reducing conditions (150 mM DTT) in 4-20% Criterion™ TGX™ precast gels (BioRad, Hercules, Calif.) and then transferred onto a nitrocellulose membrane (Bio-Rad, Hercules, Calif.). Nitrocellulose membranes were blocked with 5% skim milk (MedSupply, Atlanta, Ga.) in TBS containing 0.05% Tween 20 (TBST) for 1 h at room temperature. The membranes were treated with anti-mortalin (Grp-75) mAb or anti-α-tubulin mAb for cell lysates (FIG. 15, Panels A and B) or with anti-Alix and anti-vimentin or anti-mortalin for exosomes (FIG. 12), followed by peroxidase-conjugated goat anti-mouse IgG. Bands were developed with an ECL chemiluminescent substrate (Santa Cruz Biotechnology, Santa Cruz, Calif.) and exposed to an ImageQuant LAS 4000 imaging system (GE Healthcare, Piscataway, N.J. 08854).

[4] = test system: MDA-MB-231 exosomes; assay: Western blot of exosomal proteins (Alix, vimentin, mortalin), MDA-MB-231; settings: MDA-MB-231 cells, 48 hr treatment
Method: as §2, §3

[5] = test system: MDA-MB-231 breast cancer cells; assay: Exosome release by acetylcholinesterase (AchE) assay, MDA-MB-231; settings: MDA-MB-231 cells, five-day treatment
Method: (§4) 1-6. Exosome isolation and purification. Exosomes were isolated from breast cancer cells by differential centrifugation as previously described (Ali SA. et al., 2010). Untreated tumor cells were used as a control. Briefly, the above treated and untreated cell culture supernatants were centrifuged at 400×g for 10 minutes. The supernatants were transferred to a clear tube and centrifuged at 10,000×g for 30 minutes. The supernatants from the second spin were ultracentrifuged at 200,000×g for 2 hours to pellet exosomes. Finally, the exosome pellets were re-suspended with PBS and stored at 4° C. until used for analysis.
(§5) 1-7. Exosome characterization by acetylcholinesterase (AchE) assay. Purified exosomes were quantitated by measurement of AchE as described (Ellman et al., 1961). Briefly, a 100 mM dithibionitrobenzoic (DTNB) solution was prepared for use as a stock color indicator, and a 28.9 mg/mL acetylthiocholine iodide in PBS solution was prepared as a stock substrate. The stock substrate stock can be stored at −20° C. up to one month, while the color indicator can be stored at 4° C. for two weeks. A working solution was prepared by mixing 10 mL of PBS with 200 μL of Substrate and 500 μl of DTNB. 50 μL of each exosome sample was transferred to 96 well microtitre plates, and a standard curve was prepared using AchE from 0.98 mU/mL to 2000 mU/mL. After 50 μL of standards were added into separate wells, 200 μL of the working solution was added to all wells. After 20 min incubation, AchE activity was measured at 450 nm using a SpectroMax M5 fluorimeter.
(§6) 7-5. Exosome isolation and purification. Exosomes were isolated from breast cancer cells and leukemia cells using the ExoQuick-TC Exosome Precipitation Kit (System Biosciencences [SBI], Mountain View Calif.) or the miRCURY Exosome Isolation Kit (EXIQON, Woburn, Mass.) according to the manufacturer's instructions. Untreated tumor cells were used as a control. Briefly, treated and untreated cell culture supernatants (10 mL) were centrifuged at 3000×g for 15 minutes. The resulting supernatants were transferred to a clear tube, 2 mL of ExoQuick-TC buffer was added, mixed and incubated overnight at 4° C. Following the incubation, the sample contents were centrifuged at 1500×g for 30 minutes, the supernatants were aspirated off, the pellets were centrifuged at 1500×g for 5 minutes and any further traces of supernatant were removed (SBI). Alternatively, treated and untreated cell culture supernatants were centrifuged at 10,000×g for 5 minutes to remove cell debris, supernatants (10 ml) were transferred into new tubes, and 4 mL of precipitation buffer (EXIQON) was added, and the contents were mixed and incubated at 4° C. overnight. Following the incubation, the sample contents were centrifuged at 10,000×g for 30 minutes (EXIQON). Exosome-containing pellets were re-suspended in PBS and stored at 4° C. or −80° C.
(§7) 7-6. Exosome characterization by acetylcholinesterase (AchE) assay. Purified exosomes were quantitated by measurement of AchE as previously described (Huang et al., Oncotarget, 2017. 8(7): pp. 11302-11315). Briefly, 100 mM dithibionitrobenzoic (DTNB) was prepared as a stock color indicator, and prepared a stock substrate containing 28.9 mg/mL of acetylthiocholine iodide in PBS. Substrate stock can be stored at −20° C. up to one month; the stock color indicator can be stored at 4° C. for two weeks. A working solution was prepared by mixing 10 mL of PBS with 200 μL of substrate and 500 μl of DTNB. 50 μL of each exosome sample was transferred to a 96 well microtitre plate, and a standard curve for AchE concentrations was prepared using AchE from 0.98 mU/mL to 2000 mU/mL. After 50 μL of standards were added into separate wells, 200 μL of the working solution was added to each well. After a 20 min incubation, AchE activity was measured at 450 nm using a SpectroMax M5 fluorometer (FIG. 11).

[6] = test system: MCF-7 breast cancer cells; assay: Exosome release by acetylcholinesterase (AchE) assay, MCF-7; settings: MCF-7 cells, five-day treatment
Method: as §4, §5, §6, §7

[7] = test system: MDA-MB-231 cells; assay: TUNEL apoptosis assay, MDA-MB-231; settings: 48 hours, MKT-077 925 nM/mL, DMA 300 μM/mL, Omeprazole 200 μM/mL, paclitaxel 1.6 uM/mL, cisplatin 2 mg/mL
Method: as §1

[8] = test system: exosomes from MCF-7 cells; assay: Western blot of exosomal proteins (Alix, vimentin, mortalin), MCF-7; settings: 48 hr treatment, vs negative controls
Method: as §2, §3

[9] = test system: MCF-7 breast cancer cells; assay: InnoCyte cell migration assay, MCF-7; settings: MCF-7 cells, 1120 nM SMR peptide or 3 μM Latrunculin A, 24 hours
Method: (§8) 7-12. Cell migration assay. Cell migration assays were performed using the InnoCyte Cell Migration Assay (EMD Millipore Corporation, Temecula, Calif.) according to the manufacturer's instructions. Briefly, cell migration was monitored in the presence and absence of SMRwt peptides or latrunculin A (positive control inhibitor), which were added to the lower chamber of a 96-well plate. MCF-7 and MDA-MB-231 breast cancer cells and non-tumorigenic MCF-10A breast cells were harvested by 0.25% Trypsin-EDTA (Life Technologies) release and resuspended at 250,000500,000 cells/ml in serum-free RPMI 1640 media. A total of 25,000-50,000 cells was added to the upper chamber and allowed to migrate through an 8-μm pore-size membrane for 24 hours at 37° C. in a 5% CO2 atmosphere. Cells that migrated through the membrane were detached and labeled with Calcein-AM fluorescent dye. Fluorescence was measured using a Fluorescence Plate Reader (Molecular Devices, Sunnyvale, Calif.) with an excitation wavelength of 485 nm and an emission wavelength of 515 nm. The experiment was repeated in triplicate, and each conditioned experiment was performed in quadruplicate.

[10] = test system: MDA-MB-231 breast cancer cells; assay: InnoCyte cell migration assay, MDA-MB-231; settings: MDA-MB-231 cells, 280 nM SMR peptide or 3 μM Latrunculin A, 24 hours
Method: as §8

Row | SMILES | apoptosis (TUNEL) [1] [%] | apoptosis (TUNEL) [2] [%] | Alix expression in exosomes [3] | Mortalin expression in exosomes [3] | Vimentin expression in exosomes [3] | Mortalin expression in exosomes [4] | Vimentin expression in exosomes [4] | average AChE concentration day 1 to 5 [5] [mU/mL] | average AChE concentration days 1 to 5 [6] [mU/mL] | apoptosis (TUNEL) [7] [%] | Alix expression in exosomes [8] | Mortalin expression in exosomes [8] | Vimentin expression in exosomes [8] | reduced migration by [9] [%] | reduced migration by [10] [%]
1 | COc1ccc2[nH]c([S+]([O-])Cc3ncc(C)c(OC)c3C)nc2c1 (stereo not shown) [Omeprazole, 5-Methoxy-2-[[(4-methoxy-3,5-dimethyl-2-pyridinyl)methyl]sulfinyl]-1H-benzimidazole] | 1.1 | 6.1 | significantly decreased | significantly decreased | significantly | No significant change | no significant change | 25 | 26 | 3.0 | not accompanied by significant reductions | no significant changes | significantly decreased |  | 
2 | CN(C)c1nc(N)c(C(=O)NC(=N)N)nc1Cl [DMA, 5-(N,N-Dimethyl)amiloride] | 11.83 | 15.2 | significantly decreased | significantly decreased | significantly |  | significantly decreased | 37 | 26 | 30.43 | not accompanied by significant reductions | no significant changes | significantly decreased |  | 
3 | C/C1=C/C(=O)O[C@@H]2C[C@@H](CC[C@H](C)/C=C\C=C\CC1)O[C@@](O)([C@@H]1CSC(=O)N1)C2 [latrunculin A, reference compound] |  |  |  |  |  |  |  |  |  |  |  |  |  | 53.05 | 50.39
4 | CCn1c(=Cc2cccc[n+]2CC)sc(=C2Sc3ccccc3N2C)c1=O.[Cl-] [MKT-077, 1-Ethyl-2-[[3-ethyl-5-(3-methyl-2(3H)-benzothiazolylidene)-4-oxo-2-thiazolidinylidene]methyl]-pyridinium chloride] | 90.1 | 82.7 | significantly decreased | significantly decreased | significantly | No significant change | no significant change | 29 | 22 | 52.13 | significantly decreased | significantly decreased | significantly decreased |  | 
